From patent publication US20240207263A1, “SELECTIVE MODULATORS OF ATAXIA TELA[…] (ATM) KINASE AND USES THEREOF” (priority 2021, published 2024)
Where two headings read alike, the source gives them in different places.

Biological target: ATM (Homo sapiens (Human), UniProt Q13315)
Assay: biochemical
Assay type: biochemical
Description: Assay a): ATM Biochemical Potency
Data was collected by Caliper.

Sequence of ATM (Q13315 whole entry, looked up): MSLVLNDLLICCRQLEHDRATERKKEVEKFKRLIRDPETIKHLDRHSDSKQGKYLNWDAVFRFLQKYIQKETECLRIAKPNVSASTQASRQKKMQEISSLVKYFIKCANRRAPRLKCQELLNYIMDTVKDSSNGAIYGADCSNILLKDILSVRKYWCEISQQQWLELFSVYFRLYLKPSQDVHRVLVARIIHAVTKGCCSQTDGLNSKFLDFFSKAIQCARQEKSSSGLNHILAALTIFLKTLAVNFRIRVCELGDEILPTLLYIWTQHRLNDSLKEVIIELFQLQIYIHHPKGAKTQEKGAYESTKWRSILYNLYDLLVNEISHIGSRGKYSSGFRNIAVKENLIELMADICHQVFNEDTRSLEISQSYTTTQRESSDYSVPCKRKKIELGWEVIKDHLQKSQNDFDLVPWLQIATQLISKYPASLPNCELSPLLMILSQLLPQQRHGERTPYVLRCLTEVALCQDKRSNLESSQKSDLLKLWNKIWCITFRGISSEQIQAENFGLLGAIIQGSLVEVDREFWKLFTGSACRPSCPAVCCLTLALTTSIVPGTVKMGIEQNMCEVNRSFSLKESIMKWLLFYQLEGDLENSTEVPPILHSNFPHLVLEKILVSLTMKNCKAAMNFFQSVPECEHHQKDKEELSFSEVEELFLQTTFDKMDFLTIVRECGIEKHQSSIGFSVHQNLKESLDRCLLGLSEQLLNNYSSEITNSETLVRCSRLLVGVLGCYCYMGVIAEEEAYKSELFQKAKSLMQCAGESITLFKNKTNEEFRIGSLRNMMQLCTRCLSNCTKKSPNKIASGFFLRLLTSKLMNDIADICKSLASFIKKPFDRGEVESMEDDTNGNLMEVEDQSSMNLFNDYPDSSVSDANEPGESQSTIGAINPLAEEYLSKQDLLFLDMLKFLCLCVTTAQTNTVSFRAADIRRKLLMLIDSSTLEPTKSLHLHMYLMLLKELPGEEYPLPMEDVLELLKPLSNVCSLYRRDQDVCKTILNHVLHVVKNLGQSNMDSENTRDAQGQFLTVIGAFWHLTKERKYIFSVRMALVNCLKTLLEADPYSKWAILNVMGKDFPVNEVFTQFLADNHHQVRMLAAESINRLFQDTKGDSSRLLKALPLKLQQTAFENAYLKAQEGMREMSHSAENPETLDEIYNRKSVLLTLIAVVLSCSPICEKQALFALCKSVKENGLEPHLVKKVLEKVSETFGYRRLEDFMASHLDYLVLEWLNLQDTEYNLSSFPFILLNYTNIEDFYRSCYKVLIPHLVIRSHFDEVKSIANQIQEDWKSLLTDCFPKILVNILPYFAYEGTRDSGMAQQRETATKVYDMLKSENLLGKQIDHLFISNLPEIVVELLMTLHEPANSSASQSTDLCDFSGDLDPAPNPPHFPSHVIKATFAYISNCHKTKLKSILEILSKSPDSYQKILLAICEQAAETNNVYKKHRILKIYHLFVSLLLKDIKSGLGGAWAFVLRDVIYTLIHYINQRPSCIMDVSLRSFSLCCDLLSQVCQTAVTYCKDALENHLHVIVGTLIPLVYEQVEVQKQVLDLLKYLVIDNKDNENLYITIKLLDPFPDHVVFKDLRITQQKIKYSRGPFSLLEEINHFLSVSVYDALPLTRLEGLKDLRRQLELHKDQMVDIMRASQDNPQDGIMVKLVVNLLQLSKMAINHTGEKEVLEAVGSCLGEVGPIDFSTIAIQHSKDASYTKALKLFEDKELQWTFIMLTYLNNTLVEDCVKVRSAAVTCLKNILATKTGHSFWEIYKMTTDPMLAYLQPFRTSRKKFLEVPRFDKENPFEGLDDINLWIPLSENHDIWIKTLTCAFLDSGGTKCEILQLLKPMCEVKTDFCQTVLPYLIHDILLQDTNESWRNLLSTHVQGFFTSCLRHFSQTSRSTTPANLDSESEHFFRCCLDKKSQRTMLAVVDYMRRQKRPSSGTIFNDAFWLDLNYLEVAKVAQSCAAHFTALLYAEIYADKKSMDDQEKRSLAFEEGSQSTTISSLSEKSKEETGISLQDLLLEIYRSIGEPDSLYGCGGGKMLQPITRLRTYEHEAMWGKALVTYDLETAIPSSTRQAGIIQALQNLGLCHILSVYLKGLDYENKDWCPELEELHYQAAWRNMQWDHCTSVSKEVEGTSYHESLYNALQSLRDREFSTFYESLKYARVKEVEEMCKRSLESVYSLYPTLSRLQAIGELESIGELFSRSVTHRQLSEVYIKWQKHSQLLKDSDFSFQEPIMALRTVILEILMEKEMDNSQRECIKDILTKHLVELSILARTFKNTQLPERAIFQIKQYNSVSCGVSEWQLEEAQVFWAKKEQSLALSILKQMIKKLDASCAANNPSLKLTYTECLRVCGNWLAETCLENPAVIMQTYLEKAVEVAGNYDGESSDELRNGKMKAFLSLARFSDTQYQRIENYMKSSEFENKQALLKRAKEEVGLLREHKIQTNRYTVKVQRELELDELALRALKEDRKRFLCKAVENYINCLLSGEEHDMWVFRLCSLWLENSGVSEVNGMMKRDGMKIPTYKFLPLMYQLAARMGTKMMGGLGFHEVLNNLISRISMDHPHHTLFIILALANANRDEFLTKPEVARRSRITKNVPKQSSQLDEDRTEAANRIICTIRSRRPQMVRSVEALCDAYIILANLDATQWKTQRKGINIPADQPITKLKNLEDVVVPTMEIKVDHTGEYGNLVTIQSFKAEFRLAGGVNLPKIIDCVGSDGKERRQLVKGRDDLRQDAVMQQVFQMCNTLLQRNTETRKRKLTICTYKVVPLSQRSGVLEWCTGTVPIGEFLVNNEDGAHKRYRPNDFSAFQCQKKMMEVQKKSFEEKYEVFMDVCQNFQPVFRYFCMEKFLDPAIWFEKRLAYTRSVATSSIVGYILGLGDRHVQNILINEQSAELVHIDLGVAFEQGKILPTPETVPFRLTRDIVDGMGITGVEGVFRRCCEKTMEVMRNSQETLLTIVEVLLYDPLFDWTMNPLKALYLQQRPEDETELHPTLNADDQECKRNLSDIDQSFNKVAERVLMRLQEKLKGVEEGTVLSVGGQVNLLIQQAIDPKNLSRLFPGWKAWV

| Compound | IC50 (read-out: ATM IC50) | IC50 |
| --- | --- | --- |
| CC(C)n1c(=O)n(C)c2nnc3ccc(-c4ccc([C@@H](C)OCCN5CCC(C6COC6)CC5)nc4)cc3c21 [Example 83, (R)-1-isopropyl-3-methyl-8-(6-(1-(2-(4-(oxetan-3-yl)piperidin-1-yl)ethoxy)ethyl)pyridin-3-yl)-1H-imidazo[4,5-c]cinnolin-2(3H)-one] | 2.4 nM |  |
| CC(C)n1c(=O)n(C)c2nnc3ccc(-c4ccc([C@@H](C)OCCN5CCC(C(F)(F)F)CC5)nc4)cc3c21 [Example 84, (R)-1-isopropyl-3-methyl-8-(6-(1-(2-(4-(trifluoromethyl)piperidin-1-yl)ethoxy)ethyl)pyridin-3-yl)-1H-imidazo[4,5-c]cinnolin-2(3H)-one] | 1.9 nM |  |
| COC[C@@H]1CCN(CCO[C@H](C)c2ccc(-c3ccc4nnc5c(c4c3)n(C(C)C)c(=O)n5C)cn2)C1 [Example 85, 1-isopropyl-8-(6-((R)-1-(2-((R)-3-(methoxymethyl)pyrrolidin-1-yl)ethoxy)ethyl)pyridin-3-yl)-3-methyl-1H-imidazo[4,5-c]cinnolin-2(3H)-one] | 3.4 nM |  |
| CC(C)n1c(=O)n(C)c2nnc3ccc(-c4ccc([C@@H](C)OCCN5CCCCC5)nc4)cc3c21 [Example 87, (R)-1-isopropyl-3-methyl-8-(6-(1-(2-(piperidin-1-yl)ethoxy)ethyl)pyridin-3-yl)-1H-imidazo[4,5-c]cinnolin-2(3H)-one] | 8.2 nM |  |
| CC(C)n1c(=O)n(C)c2nnc3ccc(-c4ccc([C@@H](C)OCCN5CCC6(CCC6)C5)nc4)cc3c21 [Example 89, (R)-8-(6-(1-(2-(6-azaspiro[3.4]octan-6-yl)ethoxy)ethyl)pyridin-3-yl)-1-isopropyl-3-methyl-1H-imidazo[4,5-c]cinnolin-2(3H)-one] | 1.6 nM |  |
| CC(C)n1c(=O)n(C)c2nnc3ccc(-c4ccc([C@@H](C)OCCN5CCC(C)(C#N)C5)nc4)cc3c21 (stereo partly drawn) [Example 90, 1-(2-((R)-1-(5-(1-isopropyl-3-methyl-2-oxo-2,3-dihydro-1H-imidazo[4,5-c]cinnolin-8-yl)pyridin-2-yl)ethoxy)ethyl)-3-methylpyrrolidine-3-carbonitrile] | 11 nM |  |
| CC(C)n1c(=O)n(C)c2nnc3ccc(-c4ccc([C@@H](C)OCCN5CCC(C#N)CC5)nc4)cc3c21 [Example 91, (R)-1-(2-(1-(5-(1-isopropyl-3-methyl-2-oxo-2,3-dihydro-1H-imidazo[4,5-c]cinnolin-8-yl)pyridin-2-yl)ethoxy)ethyl)piperidine-4-carbonitrile] | 8.5 nM |  |
| CC(C)OC1CCN(CCO[C@H](C)c2ccc(-c3ccc4nnc5c(c4c3)n(C(C)C)c(=O)n5C)cn2)CC1 [Example 92, (R)-8-(6-(1-(2-(4-isopropoxypiperidin-1-yl)ethoxy)ethyl)pyridin-3-yl)-1-isopropyl-3-methyl-1H-imidazo[4,5-c]cinnolin-2(3H)-one] | 1.5 nM |  |
| CC(C)O[C@@H]1CCN(CCO[C@H](C)c2ccc(-c3ccc4nnc5c(c4c3)n(C(C)C)c(=O)n5C)cn2)C1 [Example 93, 8-(6-((R)-1-(2-((R)-3-isopropoxypyrrolidin-1-yl)ethoxy)ethyl)pyridin-3-yl)-1-isopropyl-3-methyl-1H-imidazo[4,5-c]cinnolin-2(3H)-one] | 4.9 nM |  |
| Cn1c(=O)n(C2CCOCC2)c2c3cc(-c4ccc(COCCN5CCC6(CC6)C5)nc4)ccc3nnc21 [Example 94, 8-(6-((2-(5-azaspiro[2.4]heptan-5-yl)ethoxy)methyl)pyridin-3-yl)-3-methyl-1-(tetrahydro-2H-pyran-4-yl)-1H-imidazo[4,5-c]cinnolin-2(3H)-one] |  | 24 nM |
| Cn1c(=O)n(C2CCOCC2)c2c3cc(-c4ccc(COCCN5CCC(F)CC5)nc4)ccc3nnc21 [Example 95, 8-(6-((2-(4-fluoropiperidin-1-yl)ethoxy)methyl)pyridin-3-yl)-3-methyl-1-(tetrahydro-2H-pyran-4-yl)-1H-imidazo[4,5-c]cinnolin-2(3H)-one] | 47 nM |  |
| Cn1c(=O)n(C2CCOCC2)c2c3cc(-c4ccc(COCCN5CCC(C)(C)CC5)nc4)ccc3nnc21 [Example 96, 8-(6-((2-(4,4-dimethylpiperidin-1-yl)ethoxy)methyl)pyridin-3-yl)-3-methyl-1-(tetrahydro-2H-pyran-4-yl)-1H-imidazo[4,5-c]cinnolin-2(3H)-one] | 17 nM |  |
| Cn1c(=O)n(C2CCOCC2)c2c3cc(-c4ccc(COCCN5CC6CC6C5)nc4)ccc3nnc21 (stereo not drawn) [Example 98, 8-(6-((2-(3-azabicyclo[3.1.0]hexan-3-yl)ethoxy)methyl)pyridin-3-yl)-3-methyl-1-(tetrahydro-2H-pyran-4-yl)-1H-imidazo[4,5-c]cinnolin-2(3H)-one] | 62 nM |  |
| Cn1c(=O)n(C2CCOCC2)c2c3cc(-c4ccc(COCCN5CC[C@@H](OC(F)F)C5)nc4)ccc3nnc21 [Example 99, (R)-8-(6-((2-(3-(difluoromethoxy)pyrrolidin-1-yl)ethoxy)methyl)pyridin-3-yl)-3-methyl-1-(tetrahydro-2H-pyran-4-yl)-1H-imidazo[4,5-c]cinnolin-2(3H)-one] | 40 nM |  |
| Cn1c(=O)n(C2CCOCC2)c2c3cc(-c4ccc(COCCN5CC[C@H](OC(F)F)C5)nc4)ccc3nnc21 [Example 100, (S)-8-(6-((2-(3-(difluoromethoxy)pyrrolidin-1-yl)ethoxy)methyl)pyridin-3-yl)-3-methyl-1-(tetrahydro-2H-pyran-4-yl)-1H-imidazo[4,5-c]cinnolin-2(3H)-one] | 16 nM |  |
| Cn1c(=O)n(C2CCOCC2)c2c3cc(-c4ccc(COCCN5CCC(OC(F)(F)F)CC5)nc4)ccc3nnc21 [Example 101, 3-methyl-1-(tetrahydro-2H-pyran-4-yl)-8-(6-((2-(4-(trifluoromethoxy)piperidin-1-yl)ethoxy)methyl)pyridin-3-yl)-1H-imidazo[4,5-c]cinnolin-2(3H)-one] | 3.7 nM |  |
| C[C@@H](OCCN1CC2CC2C1)c1ccc(-c2ccc3nnc4c(c3c2)n(C2CCOCC2)c(=O)n4C)cn1 (stereo partly drawn) [Example 104, 8-(6-((1R)-1-(2-(3-azabicyclo[3.1.0]hexan-3-yl)ethoxy)ethyl)pyridin-3-yl)-3-methyl-1-(tetrahydro-2H-pyran-4-yl)-1H-imidazo[4,5-c]cinnolin-2(3H)-one] | 19 nM |  |
| C[C@@H](OCCN1CCC(F)CC1)c1ccc(-c2ccc3nnc4c(c3c2)n(C2CCOCC2)c(=O)n4C)cn1 [Example 108] | 3.7 nM |  |
| C[C@@H](OCCN1CCC(OC(F)(F)F)CC1)c1ccc(-c2ccc3nnc4c(c3c2)n(C2CCOCC2)c(=O)n4C)cn1 [Example 109, (R)-3-methyl-1-(tetrahydro-2H-pyran-4-yl)-8-(6-(1-(2-(4-(trifluoromethoxy)piperidin-1-yl)ethoxy)ethyl)pyridin-3-yl)-1H-imidazo[4,5-c]cinnolin-2(3H)-one] | 2.1 nM |  |
| C[C@@H](OCCN1CCC(C)(C)C1)c1ccc(-c2ccc3nnc4c(c3c2)n(C2CCOCC2)c(=O)n4C)cn1 [Example 111, (R)-8-(6-(1-(2-(3,3-dimethylpyrrolidin-1-yl)ethoxy)ethyl)pyridin-3-yl)-3-methyl-1-(tetrahydro-2H-pyran-4-yl)-1H-imidazo[4,5-c]cinnolin-2(3H)-one] | 12 nM |  |
| CC(C)O[C@@H]1CCN(CCO[C@H](C)c2ccc(-c3ccc4nnc5c(c4c3)n(C3CCOCC3)c(=O)n5C)cn2)C1 [Example 113, 8-(6-((R)-1-(2-((R)-3-isopropoxypyrrolidin-1-yl)ethoxy)ethyl)pyridin-3-yl)-3-methyl-1-(tetrahydro-2H-pyran-4-yl)-1H-imidazo[4,5-c]cinnolin-2(3H)-one] | 7.5 nM |  |
